Results on 36 molecules are retold here after ChEMBL document CHEMBL5346885, “"Hit" to lead optimization and chemoinformatic studies for a new series of Autotaxin inhibitors” (Eur J Med Chem, 2023).

Values after ≈ are worked out from the molar mass of the structure shown. Active and inactive are the calls of the source. No cut-off for these calls is given here. Some results are limits rather than exact numbers.

Data set [1] deals with T1, Autotaxin (Homo sapiens, UniProt Q13822). As to the kind of experiment: Inhibition of human ATX using LPC as substrate preincubated with compound for 15 mins followed by substrate addition measured after 30 mins by Amplex Red reagent based fluorescence analysis.
A short description of data set [2]: Kinetic solubility of compound in simulated gastric fluid at pH 1.7 by HPLC analysis.
Data set [3] in a line: Kinetic solubility of compound in PBS at pH 7.4 by HPLC analysis.
Data set [4] relates to CO[C@](C(=O)Nc1c2c(nn1-c1ccc(Br)cc1)CSC2)(c1ccccc1)C(F)(F)F. The data set is described as follows: (§1) Mixed type inhibition of human ATX assessed as km using LPC as substrate by Lineweaver-Burk plot analysis.
Data set [5] deals with O=C(Nc1c2c(nn1-c1ccc(Br)cc1)CSC2)c1cc(Cl)cc(Cl)c1. The description is as §1.
The test system of data set [6] is A549. As to the kind of experiment: Antitumor activity against human A549 cells assessed as redcution in cell viability measured after 24 hrs by MTT assay. It is filed as functional, cell-based. To be noted: dose 0.5-50 µM. A general note: Formazan colour is commonly taken as a measure of viable cells.
Data set [7] relates to A549. As to the kind of experiment: Antiproliferative activity against human A549 cells assessed as redcution in cell growth measured after 24 hrs by MTT assay. As to conditions: dose 0.5-50 µM. It is filed as functional, cell-based.
Data set [8] can be described thus: Kinetic solubility of compound in simulated intestinal fluid at pH 6.6 by HPLC analysis.
Data set [9] can be described thus: Cytotoxicity against wild type Fibroblast (unknown origin) assessed as redcution in cell growth measured after 48 hrs by crystal violet staining based analysis. To be noted: wild type fibroblasts.
In data set [10] the target is T1, Autotaxin. The data set is described as follows: Mixed type inhibition of human ATX assessed as inhibition constant using LPC as substrate by Lineweaver-Burk plot analysis.
Data set [11] has as its target Autotaxin (Mus musculus, UniProt Q9R1E6). As to the kind of experiment: Inhibition of mouse ATX using LPC as substrate preincubated with compound for 15 mins followed by substrate addition measured after 30 mins by Amplex Red reagent based fluorescence analysis.
Data set [12] has as its system A549. The data set is described as follows: Inhibition of cell migration in human A549 cells at 5 uM incubated for 24 hrs by crystal violet staining based transwell assay. It is filed as functional.
Data set [13] deals with 3',5'-cyclic phosphodiesterase. As to the kind of experiment: Inhibition of PDE (unknown origin). It is filed as protein assay, Homo sapiens.

For the molecule `CO[C@](C(=O)Nc1c2c(nn1-c1ccc(Br)cc1)CCC2)(c1ccccc1)C(F)(F)F`, the IC50 – broadly, the concentration that inhibits the measured activity by half – at Autotaxin [1] is 24.4 µM. For the molecule `O=C(CCN1CCN(C(=O)OCc2cc(Cl)cc(Cl)c2)CC1)c1ccc2[nH]c(=O)oc2c1`, the results for the kinetic solubility in data set [2] and in data set [3] were 15.4 µM (≈ 7.35 µg/mL) and 1.22 µM (≈ 0.584 µg/mL), respectively. Turning to “Autotaxin (Homo sapiens) (from UniProt Q13822)”, the Michaelis-Menten constant (Km) – broadly, the substrate concentration at which the rate is half of its maximum – in data set [4] came to 5.61 µM; in data set [5], 17.1 µM. Consider `O=C(CN1CCN(C(=O)c2cc(Cl)cc(Cl)c2)CC1)Nc1ccn(-c2ccc(Br)cc2)n1`, for which the IC50 at Autotaxin [1] turned out to be 25 µM. Regarding `O=C(Nc1c2c(nn1-c1ccc(Br)cc1)CSC2)c1cc(Cl)cc(Cl)c1`, the results for the kinetic solubility in [2] and in data set [8] were 5.02 µM (≈ 2.36 µg/mL) and 4.18 µM (≈ 1.96 µg/mL), respectively. Also, the Activity result with A549 [6] and with A549 [7] was “Dose-Dependent Effect” throughout. Also, the concentration for half-maximal inhibition (IC50) at Autotaxin [1] was determined as 6.7 µM; on Autotaxin [11], 1.8 µM. The CC50 (in general, the concentration at which the toxic effect on the cells reaches its halfway point) at 48 h in data set [9] is over 100 µM. At Autotaxin [10], the inhibition constant Ki (in general, a dissociation constant, usually derived from enzyme kinetics or from competition with a known ligand) was found to be 6.26 µM. Besides, the inhibition result in the data set with A549 [12] was “Active”.

Consider `CC(C)(C)n1nc2c(c1NC(=O)c1cccc3ccccc13)CSC2`, for which the IC50 on Autotaxin [11] is over 100 µM.

On to `O=C(Nc1c2c(nn1-c1ccc(Br)cc1)CS(=O)(=O)C2)c1cccc2ccccc12`, for which the half-inhibitory concentration (IC50) at Autotaxin [1] was over 100 µM.

Turning to `O=C(Nc1c2c(nn1-c1ccc(Br)cc1)CSC2)c1cc(F)cc(C(F)(F)F)c1`, at Autotaxin [1], the IC50 was found to be 11.2 µM.

As for `O=C(Nc1c2c(nn1-c1ccc(F)c(Cl)c1)CSC2)c1cccc2ccccc12`, at Autotaxin [11], the half-inhibitory concentration (IC50) worked out at 40.8 µM. With `O=C(Nc1c2c(nn1-c1ccc(Br)cc1)CSC2)c1ccc(C(F)(F)F)cc1`, on Autotaxin [1], the 50% inhibitory concentration (IC50) is 37.3 µM.

Take `O=C(Nc1c2c(nn1-c1ccc(Br)cc1)CSC2)c1cccc2ccccc12`: the values for the IC50 on Autotaxin [1] and on Autotaxin [11] were 4.6 µM and 5.3 µM, respectively. For the molecule `CO[C@](C(=O)Nc1c2c(nn1-c1ccc(Br)cc1)CSC2)(c1ccccc1)C(F)(F)F`, the solubility (kinetic) – broadly, the concentration staying in solution when a stock, usually in DMSO, is diluted into the medium – in [2] was 16.7 µM (≈ 8.58 µg/mL); in data set [8], 2.55 µM (≈ 1.31 µg/mL); in data set [3], 1.26 µM (≈ 0.646 µg/mL). Further, the Activity result in the data set on A549 [6] and in the data set on A549 [7] was “Dose-Dependent Effect” throughout. In addition, the concentration for half-maximal inhibition (IC50) on Autotaxin [1] is 2 µM. In addition, the CC50 at 48 h in data set [9] is over 100 µM. The Ki at Autotaxin [10] was 6.83 µM. Besides, the inhibition entry with A549 [12] was “Active”. For `O=C(Nc1c2c(nn1-c1ccc(F)c(F)c1)CSC2)c1cccc2ccccc12`, the half-inhibitory concentration (IC50) on Autotaxin [11] came out at 63 µM. On to `O=C(Nc1c2c(nn1-c1cnccn1)CSC2)c1cccc2ccccc12`, for which the half-inhibitory concentration (IC50) in [13] was found to be 0.33 µM; at Autotaxin [1], 0.9 µM; at Autotaxin [11] it was 1.8 µM. For `NS(=O)(=O)c1ccc(-n2nc3c(c2NC(=O)c2cccc4ccccc24)CSC3)cc1`, at Autotaxin [11], the IC50 was 79.8 µM. As to `O=C(Cc1ccc2ccccc2c1)Nc1c2c(nn1-c1ccc(Br)cc1)CSC2`, on Autotaxin [1], the IC50 was 21.2 µM. In the case of `O=C(Nc1c2c(nn1-c1ccc([N+](=O)[O-])cc1)CSC2)c1cccc2ccccc12`, the IC50 came to 73 µM in data set [13], 16 µM on Autotaxin [1] and 38.4 µM on Autotaxin [11]. This molecule also showed a solubility (kinetic) in data set [2] of 2.73 µM (≈ 1.14 µg/mL). Also, in data set [9], the half-maximal cytotoxic concentration (CC50) at 48 h is over 100 µM. With `O=C(Nc1c2c(nn1-c1ccccc1)CSC2)c1cccc2ccccc12`, the IC50 on Autotaxin [1] and at Autotaxin [11] was over 100 µM throughout. For the molecule `O=C(Cc1ccc(F)cc1)Nc1c2c(nn1-c1ccncc1)CSC2`, the 50% inhibitory concentration (IC50) on Autotaxin [1] was over 50 µM. Same read-out and setting: to `Cc1cc(C(=O)Nc2c3c(nn2-c2ccc(Br)cc2)CSC3)ccc1F` belongs 41.8 µM. Take `CCc1nc2c(C)cc(N3CCN(CC(=O)N4CC(O)C4)CC3)cn2c1N(C)c1nc(-c2ccc(F)cc2)c(C#N)s1` [ZIRITAXESTAT]: the kinetic solubility in data set [2] was 200 µM (≈ 118 µg/mL); in data set [8], 97 µM (≈ 57.1 µg/mL); in [3], 96.9 µM (≈ 57 µg/mL).

For the molecule `O=C(Nc1c2c(nn1-c1ccc(OC(F)(F)F)cc1)CSC2)c1cccc2ccccc12`, the 50% inhibitory concentration (IC50) on Autotaxin [11] was 22.1 µM. On the same count and under the same terms, next, `O=C(Nc1c2c(nn1-c1cc(F)cc(F)c1)CSC2)c1cccc2ccccc12`: 53.7 µM. As for `COc1ccc(-n2nc3c(c2NC(=O)c2cccc4ccccc24)CSC3)cc1`, the half-maximal inhibitory concentration (IC50) at Autotaxin [1] and on Autotaxin [11] was over 100 µM each time. For `COC(=O)c1ccc(-n2nc3c(c2NC(=O)c2cccc4ccccc24)CSC3)cc1`, the half-maximal inhibitory concentration (IC50) on Autotaxin [11] was over 100 µM.

In the case of `O=C(Cc1ccc(F)cc1)Nc1c2c(nn1-c1ccc(Br)cc1)CSC2`, the half-maximal inhibitory concentration (IC50) on Autotaxin [1] turned out to be 7.6 µM. Consider `O=C1S/C(=C\c2ccc(OCc3ccc(B(O)O)cc3)cc2)C(=O)N1Cc1ccc(F)cc1`, for which the solubility (kinetic) in [2] was 3.08 µM (≈ 1.43 µg/mL); in data set [8], 1.05 µM (≈ 0.486 µg/mL). `O=C(Nc1c2c(nn1-c1ccc(Br)cc1)COC2)c1cc(Cl)cc(Cl)c1`: on Autotaxin [1], the IC50 was over 100 µM. On to `O=C(c1cc(Cl)cc(Cl)c1)N1CCN(c2c3c(nn2-c2ccc(Br)cc2)CSC3)CC1`, for which, at Autotaxin [1], the IC50 amounted to 70 µM.

With `O=C(Nc1c2c(nn1-c1ccc(Cl)c(Cl)c1)CSC2)c1cccc2ccccc12`, the IC50 on Autotaxin [11] was 40 µM. With `O=C(Nc1c2c(nn1-c1ccncc1)CSC2)c1cccc2ccccc12`, the IC50 on Autotaxin [1] amounted to 5.3 µM; on Autotaxin [11], 2.7 µM. On to `O=C(O)c1ccc(-n2nc3c(c2NC(=O)c2cccc4ccccc24)CSC3)cc1`, for which the IC50 at Autotaxin [11] came out at 48.3 µM.

Regarding `O=C(Nc1c2c(nn1-c1ccc(Br)cc1)CCC2)c1cc(Cl)cc(Cl)c1`, at Autotaxin [1], the half-inhibitory concentration (IC50) was found to be 6.6 µM. Still for that read-out and setting: next, `O=C(Nc1c2c(nn1-c1ccc(Br)cc1)CSC2)c1ccc2ccccc2c1`: 12.1 µM. `Cc1ccc(-n2nc3c(c2NC(=O)c2cccc4ccccc24)CSC3)cc1Cl`: the IC50 at Autotaxin [11] worked out at 80 µM. Same read-out and setting: to `O=C(Nc1c2c(nn1-c1ccc(C(F)(F)F)cc1)CSC2)c1cccc2ccccc12` belongs 46.6 µM.
